Activity calls are given as the source filed them. The calls are words filed in the database; no cut-off is given here.
Columns and labels:
PC-12 [1] = assay: Inhibition of NGF-mediated neurite outgrowth in rat PC12 cells after 24 hrs by light microscopy; type: functional, cell-based
[2] = target: High affinity nerve growth factor receptor (Rattus norvegicus) (UniProt P35739); assay: Inhibition of NGF-induced TrkA receptor phosphorylation in rat PC12 cells at 10 uM after 15 mins by ELISA relative to control; type: cell-based; settings: PC-12
[3] = target: High affinity nerve growth factor receptor (Rattus norvegicus) (UniProt P35739); assay: Inhibition of NGF-induced TrkA receptor phosphorylation in rat PC12 cells after 15 mins by ELISA relative to control; type: cell-based; settings: PC-12
[4] = target: T1, Mitogen-activated protein kinase 1 and 3 (ERK2 and ERK1) (Rattus norvegicus) (UniProt P63086+P21708); assay: Inhibition of NGF-induced ERK1/2 phosphorylation in rat PC12 cells after 15 mins by Western blotting analysis relative to beta-actin level; type: cell-based; settings: PC-12
[5] = target: T1, Mitogen-activated protein kinase 1 and 3 (ERK2 and ERK1) (Rattus norvegicus); assay: Inhibition of NGF-induced ERK1/2 phosphorylation in rat PC12 cells at 10 uM after 15 mins by Western blotting analysis relative to beta-actin level (reference value: 0.275 +/- 0.005); type: cell-based; settings: PC-12
PC-12 [6] = assay: Inhibition of NGF-mediated neurite outgrowth in rat PC12 cells at 10 uM after 24 hrs by light microscopy (reference value: 21.06 +/- 1.27 %); type: functional; settings: PC-12, 24 h
PC-12 [7] = assay: Increase of NGF-mediated neurite outgrowth in rat PC12 cells at 1 uM after 24 hrs by light microscopy (reference value: 21.06 +/- 1.27 %); type: functional
PC-12 [8] = assay: Inhibition of NGF-mediated neurite outgrowth in rat PC12 cells at 100 uM after 24 hrs by light microscopy (reference value: 21.06 +/- 1.27 %); type: functional; settings: PC-12, 24 h
PC-12 [9] = assay: Inhibition of NGF-mediated neurite outgrowth in rat PC12 cells at 50 uM after 24 hrs by light microscopy (reference value: 21.06 +/- 1.27 %); type: functional; settings: PC-12, 24 h
PC-12 [10] = assay: Increase of NGF-induced neuronal differentiation in rat PC12 cells up to 100 uM after 24 hrs by light microscopy; type: functional, cell-based
[11] = target: T1, Mitogen-activated protein kinase 1 and 3 (ERK2 and ERK1) (Rattus norvegicus); assay: Inhibition of NGF-induced ERK1/2 phosphorylation in rat PC12 cells at 50 uM after 15 mins by Western blotting analysis relative to beta-actin level (reference value: 0.275 +/- 0.005); type: cell-based; settings: PC-12
[12] = target: High affinity nerve growth factor receptor (Rattus norvegicus) (UniProt P35739); assay: Inhibition of NGF-induced TrkA receptor phosphorylation in rat PC12 cells at 50 uM after 15 mins by ELISA relative to control; type: cell-based; settings: PC-12
[13] = target: High affinity nerve growth factor receptor (Rattus norvegicus) (UniProt P35739); assay: Inhibition of NGF-induced TrkA receptor phosphorylation in rat PC12 cells at 1 uM after 15 mins by ELISA relative to control; type: cell-based; settings: PC-12
[14] = target: T1, Mitogen-activated protein kinase 1 and 3 (ERK2 and ERK1) (Rattus norvegicus); assay: Inhibition of NGF-induced ERK1/2 phosphorylation in rat PC12 cells at 1 uM after 15 mins by Western blotting analysis relative to beta-actin level (reference value: 0.275 +/- 0.005); type: cell-based; settings: PC-12
PC-12 [15] = assay: Cytotoxicity against rat PC12 cells at 100 uM after 2 days by MTT assay; type: cell-based; settings: pc-12, 48 h
PC-12 [16] = assay: Increase of NGF-mediated neurite outgrowth in rat PC12 cells after 24 hrs by light microscopy; type: functional, cell-based

T1 sequence (P21708 whole entry, looked up): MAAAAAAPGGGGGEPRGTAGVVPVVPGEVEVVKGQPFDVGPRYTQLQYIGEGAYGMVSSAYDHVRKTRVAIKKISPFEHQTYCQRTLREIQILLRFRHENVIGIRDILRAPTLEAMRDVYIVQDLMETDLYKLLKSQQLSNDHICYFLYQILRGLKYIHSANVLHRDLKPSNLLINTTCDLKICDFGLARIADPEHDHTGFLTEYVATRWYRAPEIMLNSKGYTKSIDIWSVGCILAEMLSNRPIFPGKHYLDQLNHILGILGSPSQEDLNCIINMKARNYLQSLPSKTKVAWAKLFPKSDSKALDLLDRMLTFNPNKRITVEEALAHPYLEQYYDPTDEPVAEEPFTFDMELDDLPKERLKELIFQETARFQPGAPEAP
T1 sequence (P63086 whole entry, looked up): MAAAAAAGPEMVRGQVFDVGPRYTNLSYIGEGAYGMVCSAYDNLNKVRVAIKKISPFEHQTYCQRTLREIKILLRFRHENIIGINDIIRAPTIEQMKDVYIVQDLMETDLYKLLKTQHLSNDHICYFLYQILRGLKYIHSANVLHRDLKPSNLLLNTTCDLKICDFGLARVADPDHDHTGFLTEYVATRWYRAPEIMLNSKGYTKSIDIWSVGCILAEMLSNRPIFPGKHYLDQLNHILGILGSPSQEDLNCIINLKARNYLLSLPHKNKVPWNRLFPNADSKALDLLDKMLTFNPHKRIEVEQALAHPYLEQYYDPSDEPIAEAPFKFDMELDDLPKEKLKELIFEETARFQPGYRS
Sequence of High affinity nerve growth factor receptor (Rattus norvegicus) (P35739 whole entry): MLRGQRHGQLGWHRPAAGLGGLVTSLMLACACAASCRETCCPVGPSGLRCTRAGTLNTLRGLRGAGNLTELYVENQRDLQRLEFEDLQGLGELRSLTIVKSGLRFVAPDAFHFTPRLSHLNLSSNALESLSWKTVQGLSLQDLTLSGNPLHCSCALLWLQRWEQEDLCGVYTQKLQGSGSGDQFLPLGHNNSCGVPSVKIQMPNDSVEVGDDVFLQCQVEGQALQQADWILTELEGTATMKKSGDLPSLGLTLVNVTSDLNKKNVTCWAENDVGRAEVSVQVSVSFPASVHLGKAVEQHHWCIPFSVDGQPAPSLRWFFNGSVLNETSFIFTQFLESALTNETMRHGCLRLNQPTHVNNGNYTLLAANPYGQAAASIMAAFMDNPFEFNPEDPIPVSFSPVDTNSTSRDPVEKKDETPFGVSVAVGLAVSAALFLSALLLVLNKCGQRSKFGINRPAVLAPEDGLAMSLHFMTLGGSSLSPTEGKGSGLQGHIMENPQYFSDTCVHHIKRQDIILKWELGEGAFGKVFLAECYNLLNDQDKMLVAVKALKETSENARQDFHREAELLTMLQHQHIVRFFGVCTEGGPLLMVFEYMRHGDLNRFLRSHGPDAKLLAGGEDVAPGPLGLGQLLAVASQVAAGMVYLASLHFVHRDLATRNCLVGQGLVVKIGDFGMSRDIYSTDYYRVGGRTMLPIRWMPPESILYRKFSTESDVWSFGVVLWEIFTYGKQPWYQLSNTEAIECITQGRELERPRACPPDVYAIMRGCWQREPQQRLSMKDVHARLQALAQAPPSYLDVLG

## CC(C)[C@@H](C)/C=C/[C@@H](C)[C@H]1CC[C@H]2C3=CC(=O)[C@@]4(O)C[C@@H](O)CC[C@]4(C)[C@@]3(O)CC[C@]12C
PC-12 [1]
  inhibition: inactive

## CCCCCCCCCCCCCCC[C@@H](O)C(=O)N[C@@H](CO[C@@H]1O[C@H](CO)[C@@H](O)[C@H](O)[C@H]1O)[C@H](O)/C=C/CC/C=C(\C)CCCCCCCCC
PC-12 [1]
  inhibition: inactive

## C[C@H](CO)[C@]12CC[C@]3(C)CC[C@@]4(C)C(=O)CC(C=O)=CC[C@@H]4[C@@]31O2 (relative stereo) [SCABRONINE M]
[2]
  fold change (FC): 1.4
[3]
  inhibition: Dose-dependent effect
[4]
  inhibition: Dose-dependent effect
[5]
  Ratio: 0.24
PC-12 [6]
  neurite-bearing cells at 10 µM: 9.15%
PC-12 [1]
  inhibition: Dose-dependent effect
PC-12 [7]
  Activity: 23.22%
PC-12 [8]
  neurite-bearing cells at 100 µM: 0.1%
PC-12 [9]
  neurite-bearing cells at 50 µM: 1.6%
PC-12 [10]
  Activity: inactive
[11]
  Ratio: 0.21
[12]
  fold change (FC): 1.34
[13]
  fold change (FC): 1.61
[14]
  Ratio: 0.26
PC-12 [15]
  Activity: Non-toxic

## CC(C)[C@@H](C)/C=C/[C@@H](C)[C@H]1CC[C@@H]2[C@]1(C)CC[C@H]1[C@]23C=C[C@]2(C[C@@H](O[C@@H]4O[C@H](CO)[C@@H](O)[C@H](O)[C@H]4O)CC[C@]12C)OO3
PC-12 [1]
  inhibition: inactive

## CC(C)[C@@H](C)/C=C/[C@@H](C)[C@H]1CC[C@H]2C3=C[C@@H](O)[C@@]4(O)C[C@@H](O)CC[C@]4(C)[C@H]3CC[C@]12C
PC-12 [1]
  inhibition: inactive

## C[C@H](CO)C1=C2[C@H]3CC=C(C=O)CC(=O)[C@]3(C)CC[C@@]2(C)CC1
PC-12 [1]
  inhibition: Active
PC-12 [16]
  Activity: Active

## CC(C)[C@@H](C)/C=C/[C@@H](C)[C@H]1CC[C@H]2C3=CC=C4C[C@@H](O)CC[C@]4(C)[C@H]3CC[C@]12C
PC-12 [1]
  inhibition: inactive

## CC(C)[C@@H](C)/C=C/[C@@H](C)[C@H]1CC[C@@H]2[C@]1(C)CC[C@H]1[C@]23C=C[C@]2(C[C@@H](O)CC[C@]12C)OO3
PC-12 [1]
  inhibition: inactive

## CC(C)[C@@H](C)/C=C/[C@@H](C)[C@H]1CC[C@H]2C3=C[C@@H](O)[C@@]4(O)C[C@@H](O[C@@H]5O[C@H](CO)[C@@H](O)[C@H](O)[C@H]5O)CC[C@]4(C)[C@H]3CC[C@]12C
PC-12 [1]
  inhibition: inactive

## CC(C)[C@@H](C)/C=C/[C@@H](C)[C@H]1CC[C@H]2C3=CC[C@H]4C[C@@H](O)CC[C@]4(C)[C@H]3CC[C@]12C
PC-12 [1]
  inhibition: inactive

## CO[C@@H]1C=C2[C@@H]3CC[C@H]([C@H](C)/C=C/[C@H](C)C(C)C)[C@@]3(C)CC[C@]2(O)[C@@]2(C)CC[C@H](O)C[C@]12O
PC-12 [1]
  inhibition: inactive

## C[C@H](CO)C1=C2C3=CC=C(C=O)C[C@H](O)[C@]3(C)CC[C@@]2(CO)CC1
PC-12 [1]
  inhibition: inactive

Reference: ChEMBL document CHEMBL2010759, “Scabronine M, a novel inhibitor of NGF-induced neurite outgrowth from PC12 cells from the fungus Sarcodon scabrosus” (Bioorg Med Chem Lett, 2012)
